Measurements from US20100113610A1, “METHODS FOR CONTROLLING INFLAMMATORY AND IMMUNOLOGICAL DISEASES” (Purdue Research Foundation, priority 2007, published 2010).

Columns and labels:
FoxP3 [1] = assay: FoxP3 induction in mouse DO11.10 (Rag2-/-) CD4+CD25- T cells; assay type: cell-based; conditions: for induction of FoxP3 in mouse T cells: irradiated splenocytes, OVA 323-339 peptide, IL-2 100 U/ml
Description: It was determined if ATRA could induce FoxP3 in mouse T cells. […] These CD4^+ CD25^− T cells were cultured in a T cell activation condition (irradiated splenocytes with […] of OVA 323-339 antigen peptide and 100 U/ml of IL-2) in the presence or absence of ATRA. […] Other retinoids such as AM-580 (a RARα agonist) and methoprene acid (a RXR agonist) were also tested.

FoxP3 [2] = assay: FoxP3 induction in activated neonatal human cord blood CD4+CD25- naive T cells (RT-PCR, flow cytometry); assay type: cell-based; conditions: very high concentration (20 μM), IL-2 + PHA, 6 days
CD4+CD25- T cells = assay: 3H-thymidine incorporation assay: proliferation and suppression of CD4+CD25- target T cells in co-culture; assay type: cell-based, human; conditions: treated 6-7 days
Description: ATRA-treated T cells are suppressor cells with unique effector molecules. Generally, regulatory T cells are hypo-proliferative and can suppress the proliferation of target T cells (CD4^+CD25^− T cells) in co-culture. It was therefore determined if the ATRA-induced FoxP3^+ cells had these features. […] Freshly isolated CD4^+CD25^− T cells were cultured with ATRA (2 nM), TGF-p31 (2 ng/ml) or ATRA+TGF-β1 in a T cell activation condition (IL-2 +PHA) for 6-7 days. Then, the T cells were co-cultured with CD4^+CD25^− cells for 5 additional days. A 3H-thymidine incorporation assay was performed to assess the proliferation potentials of the cultures.

FoxP3 [3] = assay: Conversion of mouse naive T cells into mucosal tissue homing FoxP3+ T cells with ATRA and cytokines; assay type: cell-based; conditions: 6-7 days
Description: Also provided is a method with which almost all of naïve T cells can be converted into mucosal tissue homing FoxP3^+ T cells by utilizing ATRA and cytokines. Mouse naïve T cells were cultured with ATRA (1-100 nM), IL-2 (10-1000 U/ml) and TGF-β1 (1-100 ng/ml), together with TCR activators (concanavalin A or PHA at 1-10 μg/ml) for 6-7 days. […] This method reproducibly generates 92-99% pure mucosal tissue homing FoxP3^+ T cells.

RARα = assay: RT-PCR of RAR and RXR mRNA expression in CD4+CD25- T cells activated in ATRA; assay type: cell-based, human; conditions: ATRA 2 nM, IL-2 + PHA, 6 days; 6 RAR and RXR receptors
Description: RARα, RARβ and RARγ are the major receptors that are likely to mediate the function of ATRA. The mRNA expression of RARs and RXRs in freshly isolated CD4^+CD25^+ and CD4^+CD25^− T cells was determined, as well as in CD4^+CD25^−T cells activated in ATRA. Neonatal human cord blood CD4^+CD25^− naïve T cells were cultured in a T cell activation condition with IL-2 (25 U/ml) and PHA (5 μg/ml) in the presence or absence of ATRA (2 nM) for 6 days. Freshly isolated CD4^÷CD25^+ and CD4^+CD25^− cells are shown for comparison. RT-PCR was performed, and a representative set of results out of 4 independent experiments are shown.

FoxP3 [4] = assay: FoxP3 induction in activated neonatal human cord blood CD4+CD25- naive T cells (RT-PCR, flow cytometry); assay type: cell-based; conditions: for induction of FoxP3+ T cells by single agent: ATRA 2 nM or TGF-β1 2 ng/ml; for optimal concentration for induction of FoxP3: human cord blood CD4+CD25- T cells
Description: All-trans-retinoic acid (ATRA), a major vitamin A metabolite, induces FoxP3 expression in T cells. FoxP3 is the master transcription factor for CD4^+CD25^+ regulatory T cells. […] Neonatal human cord blood CD4^+CD25^− naïve T cells were cultured in a T cell activation condition with IL-2 (25 U/ml) and phytohemagglutinin (PHA, 5 μg/m) in the presence or absence of all-trans retinoic acid (ATRA, 2 nM) for 6 days. Naïve CD4^+CD25^− T cells were activated in the absence and presence of ATRA, and examined for expression of FoxP3 mRNA and protein by RT-PCR analysis (FIG. 1A), flow cytometry analysis (FIG. 1B) and dose-dependent induction of FoxP3 by ATRA (FIG. 1C).
As RARα can be induced in T cells in response to ATRA, the function of this receptor in induction of FoxP3 was examined using an RARα antagonist, Ro41-5253. […] FoxP3 protein expression in CD4 T cells, determined by intracellular staining by PE-labeled anti-FoxP3 antibody, is shown as FACS dot plots (FIG. 3A) and graphs (FIG. 3B). Neonatal human cord blood CD4^+CD25^− T cells were cultured in a T cell activation condition with IL-2 (25 U/ml ) and PHA (5 μg/ml) in the presence and absence of indicated agonists or antagonists for 6 days. The concentrations used to obtain the data were 2 nM (ATRA), 1 μM (Ro41-5253), 5 nM (AM-580), and 10 μM (methoprene acid).
TGF-β is a potent inducer of FoxP3 (Chen et al., 2003, J Exp Med). Therefore, the interaction between ATRA and TGF-β in their effects on FoxP3 expression was examined. […] Neonatal human cord blood CD4^+CD25^− T cells were cultured in a T cell activation condition with IL-2 (100 U/ml) and PHA (5 μg/ml) in the presence and absence of indicated agonists or antagonists for 6 days. Ro41-5253 is a RARα antagonist. […] ATRA was used at 2 nM.

granzymes = assay: Expression of granzyme A, granzyme B and perforin in induced FoxP3+ T cells; assay type: cell-based, human; conditions: for granzyme A expression in induced FoxP3+ cells: FoxP3+ T cells from cord blood CD4+CD25- T cells
Description: Regulatory T cells may use a number of different effector mechanisms to suppress target cells. Granzymes are a class of such effector molecules implicated in regulatory function. […] FoxP3^+ T cells, generated from cord blood CD4^+CD25^− T cells with ATRA, were examined for their expression of granzyme A, granzyme B and perforin. Also included were FoxP3^+T cells, generated with IL-2 (control) or IL-2 (25 U/ml) and TGF-β (2 ng/ml). Expression of granzyme A and B is shown in panel A. Three independent experiments were combined and averages and SEM are shown (panel B).

[5] = tested on: α4β7+ mucosal tissue homing FoxP3+ T cells; assay: Intestinal FoxP3+ T cell numbers in mice fed food with or without vitamin A; assay type: in vivo, mouse; conditions: 6 weeks
Description: Regulation of mucosal FoxP3^+ cell numbers by vitamin A in vivo and in vitro. The in vivo effect of vitamin A on numbers of intestinal FoxP3^+ T cells was determined. Adult mice were fed with food with (control mice) or without vitamin A for 6 weeks, and then the numbers of FoxP3^+ T cells in small and large intestine, and mesenteric lymph nodes were determined by flow analysis (FIG. 11A).

Compound: COC(C)(C)CCCC(C)C/C=C/C(C)=C/C(=O)O (centres unmarked) [methoprene acid]
- induction of FoxP3 in mouse T cells (FoxP3 [1]): able to induce FOXP3 only at very high concentrations
- optimal dose for induction of FOXP3 in mouse T cells (FoxP3 [1]; mouse DO11.10 T cells): ~100 µM
- induction of FoxP3 by pan-RXR agonist (FoxP3 [2]): only marginal effects

Compound: CC1=C(/C=C/C(C)=C/C=C/C(C)=C/C(=O)O)C(C)(C)CCC1 [ATRA, All-trans-retinoic acid]
- induction of FoxP3 in mouse T cells (FoxP3 [1]): induced FoxP3 expression in T cells
- trafficking receptors of mouse FoxP3+ T cells primed in retinoic acid (FoxP3 [1]; mouse DO11.10 T cells): expressed the mucosal tissue homing receptors CCR9 and α4β7
- suppressive activity of treated T cells on CD4+CD25- T cells (CD4+CD25- T cells; co-cultured 5 additional days): levels similar to that of TGF-β1-treated cells
- proliferation potential of treated T cells (3H-thymidine incorporation) (CD4+CD25- T cells; compared to fresh CD4+CD25- cells and cultured control cells): low proliferation potential
- T cells after culture that were FoxP3+ regulatory T cells expressing the mucosal tissue homing receptor (FoxP3 [3]; ATRA 1-100 nM, IL-2 10-1000 U/ml, TGF-β1 1-100 ng/ml, TCR activators): ~95%
- purity of mucosal tissue homing FoxP3+ T cells reproducibly generated (FoxP3 [3]; ATRA, IL-2, TGF-β1 and TCR activators): 92-99%
- RAR and RXR family receptor mRNA expression in response to ATRA (RARα): most highly expressed receptor in response to ATRA was RARα
- effect of ATRA added to the culture with TGF-β on FoxP3+ T cell induction (FoxP3 [4]; ATRA 2 nM + TGF-β1 2 ng/ml, IL-2 100 U/ml + PHA, 6 days): enhanced the effect of TGF-β
- induction of FoxP3+ T cells by single agent (FoxP3 [4]; IL-2 100 U/ml + PHA, 6 days): clear effects
- levels of FoxP3 mRNA expression (RT-PCR) (FoxP3 [4]; ATRA 2 nM with IL-2 25 U/ml and PHA, 6 days, versus IL-2 alone): increased compared to IL-2 alone
- FoxP3+ cells at the protein level (flow cytometry) (FoxP3 [4]; ATRA 2 nM with IL-2 and PHA, 6 days, presence versus absence of ATRA): significantly more
- optimal concentration for induction of FoxP3 (FoxP3 [4]; IL-2 + PHA, 6 days): 2 to 10 nM
- granzyme A expression in induced FoxP3+ cells (granzymes): expressed granzyme A
- granzyme B or perforin-expressing cells among induced FoxP3+ cells (granzymes; versus TGF-β induced FoxP3+ cells): Consistently more

Compound: CCCCCCCOc1cc2c(cc1/C(C)=C/c1ccc(C(=O)O)cc1)C(C)(C)CCS2(=O)=O [Ro41-5253]
- suppression of the FoxP3+ cell induction effect of ATRA (FoxP3 [4]; Ro41-5253 1 μM, ATRA 2 nM, 6 days): completely suppressed
- blocking of ATRA-induced versus TGF-β-induced FoxP3 induction (FoxP3 [4]; Ro41-5253, ATRA 2 nM, TGF-β1 2 ng/ml): blocked only ATRA-induced but not TGF-β-induced FoxP3 induction

Compound: CC1(C)CCC(C)(C)c2cc(C(=O)Nc3ccc(C(=O)O)cc3)ccc21 [AM-580]
- induction of FoxP3 in mouse T cells (FoxP3 [1]): good inducer of FoxP3 at low concentrations
- induction of FoxP3 by RARα-specific agonist (FoxP3 [4]; AM-580 5 nM, IL-2 + PHA, 6 days): able to induce FoxP3
- optimal concentration for induction of FoxP3 (FoxP3 [4]; IL-2 + PHA, 6 days): 5 nM

Compound: TGF-β: a potent inducer of FoxP3 (cytokine)
- induction of FoxP3+ T cells by single agent (FoxP3 [4]; IL-2 100 U/ml + PHA, 6 days): clear effects
- granzyme A expression in induced FoxP3+ cells (granzymes): did not express granzyme A at significant levels

Compound: vitamin A
- numbers of α4β7+ mucosal tissue homing FoxP3+ T cells in the large and small intestines ([5]; vitamin A-deficient food versus control food with vitamin A): significantly smaller numbers
- numbers of FoxP3+ T cells in lymph nodes (MLN) ([5]; vitamin A-deficient food versus control food): no reduction
